Experimental data published in publication PMC11678245, “The Molecular Basis of the Intrinsic and Acquired Resistance to Azole Antifungals in Aspergillus fumigatus” (Journal of Fungi, 2024).
Values joined by “and” are separate entries in the source; they are usually repeats but may differ in a detail not shown here. Identical values can stand only once. Like-named read-outs stand apart in the source and are kept apart here.

Tests used:
[1] = system: S. cerevisiae strain ARE Y121F T289A (AfCyp51A-6×His Y121F T289A, AfCprA2, AfErg6-FLAG); experiment: MIC80 susceptibility, strain Y121F T289A; assay type: cell-based, Saccharomyces cerevisiae; details: for MIC80: Saccharomyces cerevisiae, ± SD, read-out: MIC80
Description: (§1) The susceptibilities of S. cerevisiae strains to antifungal drugs were determined as minimum growth inhibitory concentration (MIC) values in 200 μL SD pH 6.8 [24]. Serial 2-fold dilutions of 100 μL of azole or control drugs in SD pH 6.8 were prepared in a 96-well microtiter plate. A portion of a 2 mL SD pH 6.8 overnight culture of the test strain was inoculated into 3 mL fresh SD pH 6.8 and incubated for 4 to 6 h at 30 °C to generate logarithmic-phase cells. These cells were then diluted with fresh SD pH 6.8 to OD600nm = 0.01 (3 × 10^4 CFU), and 100 μL of this cell suspension was added to microtiter plate wells. Cell growth after 48 h incubation at 30 °C with shaking at 200 rpm was determined at 600 nm using a BioTek™ Synergy™ 2 multi-Mode microplate reader controlled using Gen5™ Data Analysis Software version 3.16.10 (BioTek Instruments, Winooski, VT, USA). MIC80 values (80% growth inhibition in the presence of the test drug compared with the untreated control) for each yeast construct were determined as technical triplicates repeated three times for three separate clones.

AfCYP51A-6×His = AfCYP51A-6×His (Aspergillus fumigatus, UniProt Q4WNT5); experiment: Type II binding of azole drugs (difference spectra); details: for λpeak (type II difference spectrum) / λtrough (type II difference spectrum) / ΔAmax (type II binding) / Hill Number / Kd: AfCYP51A; for λpeak (type II difference spectrum) / λtrough (type II difference spectrum) / ΔAmax (type II binding) / Kd: 1 μM enzyme; for ΔAmax (type II binding) / Kd: Hill equation
Description: The concentration of AfCYP51A and AfCYP51B, purified using Ni-NTA affinity chromatography and used for the spectrophotometric type I and type II binding assays, was calculated using an extinction co-efficient of λ417nm = 117 mM^−1 cm^−1 applied to the absolute absorption spectrum of the preparations. In addition, the amount of “active” cytochrome P450 enzyme was determined using the carbon monoxide (CO) binding spectra of these preparations.
Type II binding difference spectra were obtained using 1 μM of affinity-purified CYP51 enzymes. VCZ, PCZ, VT-1161, DCZ, and MCF working solutions were prepared in DMSO, while FLC was prepared in Milli-Q water. Azole drugs were added to the sample cuvette, and corresponding amounts of DMSO or Milli-Q water were added to the reference cuvette. Drug binding curves were plotted using the difference spectrum peak and trough detected in the range of 410–425 nm. Dissociation constants (Kd) were determined by nonlinear regression (Levenberg–Marquardt algorithm) of the difference in absorbance between the peak and trough against the azole concentration using a rearrangement of the Morrison equation or the Hill equation [7]. GraphPad Prism 9.2.0 software was used to identify the best fit for the data.

[2] = system: S. cerevisiae strain ARE I301T (AfCyp51A-6×His I301T, AfCprA2, AfErg6-FLAG); experiment: MIC80 susceptibility, strain I301T; assay type: cell-based, Saccharomyces cerevisiae; details: for MIC80: ± SD
Description: as §1

[3] = system: S. cerevisiae strain A (AfCyp51A-6×His, native ScCyp51 retained); experiment: MIC80 susceptibility, strain A; assay type: cell-based; details: Saccharomyces cerevisiae, Table 2, SD pH 6.8, 48 h, 30 °C
Description: as §1

[4] = system: S. cerevisiae strain ARE Y121F (AfCyp51A-6×His Y121F, AfCprA2, AfErg6-FLAG); experiment: MIC80 susceptibility, strain Y121F; assay type: cell-based, Saccharomyces cerevisiae; details: for MIC80: Saccharomyces cerevisiae, ± SD, read-out: MIC80
Description: as §1

[5] = system: S. cerevisiae strain BRE (AfCyp51B-6×His, AfCprA2, AfErg6-FLAG); experiment: MIC80 susceptibility, strain BRE; assay type: cell-based, Saccharomyces cerevisiae; details: for MIC80: strain BRE, ± SD
Description: as §1

[6] = system: S. cerevisiae Y2300 ADΔΔ CYP51 (ScCYP51); experiment: MIC80 susceptibility, strain Y2300 (Table S1); assay type: cell-based, Saccharomyces cerevisiae; details: Saccharomyces cerevisiae
Description: as §1, with “clones. […]” for “clones.”
(§2) Table S1. Azole susceptibilities of ScCYP51 and ScCYP51 T322I expressed
(§3) Data for each strain was obtained for […] in three biological replicates.

[7] = system: S. cerevisiae strain ADLS overexpressing ScCYP51-6×His; experiment: MIC80 susceptibility, strain ADLS; assay type: cell-based, Saccharomyces cerevisiae; details: for MIC80: Saccharomyces cerevisiae, Table 2, strain ADLS, SD pH 6.8, 48 h, 30 °C, ± SD, read-out: MIC80
Description: as §1

[8] = system: S. cerevisiae Y2305 ADΔΔ CYP51 T322I (ScCYP51 T322I); experiment: MIC80 susceptibility, strain Y2305 (Table S1); assay type: cell-based, Saccharomyces cerevisiae; details: Saccharomyces cerevisiae, read-out: MIC80
Description: as §1, with “clones. […]” for “clones.”
as §2, §3

[9] = system: S. cerevisiae strain ADΔΔ (native ScCYP51); experiment: MIC80 susceptibility, host strain ADΔΔ; assay type: cell-based; details: Saccharomyces cerevisiae, Table 2, SD pH 6.8, 48 h, 30 °C
Description: as §1

[10] = system: S. cerevisiae strain AR (AfCyp51A-6×His, AfCprA2-6×His); experiment: MIC80 susceptibility, strain AR; assay type: cell-based, Saccharomyces cerevisiae; details: Saccharomyces cerevisiae; Table 2; strain AR; SD pH 6.8, 48 h, 30 °C; ± SD; read-out: MIC80
Description: as §1

[11] = Table 2, strain Y121F T289A, SD pH 6.8, 48 h, 30 °C
[12] = Saccharomyces cerevisiae, 48 h, pH 6.8, Table 2, strain I301T, SD pH 6.8, 48 h, 30 °C, read-out: MIC80
[13] = Table 2, strain Y121F, SD pH 6.8, 48 h, 30 °C
[14] = Saccharomyces cerevisiae, Table 2, SD pH 6.8, 48 h, 30 °C, read-out: MIC80

AfCYP51A-6×His, sequence (Q4WNT5 whole entry): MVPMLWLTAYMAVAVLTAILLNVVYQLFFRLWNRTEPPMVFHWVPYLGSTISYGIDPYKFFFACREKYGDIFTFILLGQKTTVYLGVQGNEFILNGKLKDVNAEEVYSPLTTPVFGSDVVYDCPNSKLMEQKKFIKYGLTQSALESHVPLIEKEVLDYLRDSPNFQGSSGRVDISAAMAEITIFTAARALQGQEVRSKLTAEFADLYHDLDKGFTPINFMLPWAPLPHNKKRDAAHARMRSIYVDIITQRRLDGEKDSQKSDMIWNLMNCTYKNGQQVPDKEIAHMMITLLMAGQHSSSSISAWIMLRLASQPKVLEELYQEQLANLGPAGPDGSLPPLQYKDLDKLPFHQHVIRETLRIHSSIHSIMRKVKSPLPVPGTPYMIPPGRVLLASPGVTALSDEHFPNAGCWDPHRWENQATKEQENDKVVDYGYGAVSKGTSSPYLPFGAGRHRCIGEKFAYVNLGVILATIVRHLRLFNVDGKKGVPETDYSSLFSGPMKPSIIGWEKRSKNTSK

Structure (SMILES)	increase in resistance (MIC80) of strain Y121F T289A compared with strain BRE [1]	increase in resistance (MIC80) of strain Y121F T289A compared with strain T289A [1]	MIC80 [1, 11]	λpeak (type II difference spectrum) (AfCYP51A-6×His)	λtrough (type II difference spectrum) (AfCYP51A-6×His)	ΔAmax (type II binding) (AfCYP51A-6×His)	Hill Number (AfCYP51A-6×His; type II binding)	Kd (AfCYP51A-6×His; type II binding)	MIC80 [2, 12]	MIC80 [3]	MIC80 [4, 13]	MIC80 [5, 14]	MIC80 [6]	MIC80 [7]	MIC80 [8]	MIC80 [9]	MIC80 [10]	also measured
C[C@@H](c1ncncc1F)[C@](O)(Cn1cncn1)c1ccc(F)cc1F [VCZ, voriconazole]	4 fold	4 fold	2.86 ± 0.22 µM	422 nm	392 nm	0.05	1.10	1500 nM and 1520 nM	< 0.12 µM	0.08 ± 0.01 µM	2.07 ± 0.21 µM	0.21 ± 0.02 µM	0.71 ± 0.03 µM	0.17 ± 0.03 µM	0.8 ± 0.03 µM	0.06 µM	0.11 ± 0.02 µM	MIC80 ([2]; Table 2, strain I301T, SD pH 6.8, 48 h, 30 °C): 0.11 ± 0.00 µM; increase in resistance (MIC80) of strain Y121F compared with strain ARE [4]: > 8 fold and 8 fold; MIC80 of strain BRE relative to strain ADΔΔ ([5]; higher): 4- to 5 fold
OC(Cn1cncn1)(Cn1cncn1)c1ccc(F)cc1F [FLC, fluconazole]	106 fold	53 fold	1060 ± 60 µM	422 nm	383 nm	0.10	0.72	3230 ± 1130 nM	77.2 ± 5.9 µM	3.8 ± 0.2 µM	263 ± 31.6 µM	10 ± 1.4 µM	6.2 ± 0.3 µM	8 ± 0.2 µM	6.6 ± 0.2 µM	3.3 ± 0.2 µM	6.5 ± 0.7 µM	increase in resistance (MIC80) of strain Y121F T289A compared with strain ARE [1]: 5 fold; increase in resistance (MIC80) of strain Y121F T289A compared with strain Y121F [1]: 4 fold; MIC80 ([1]; Table 3, strain ARE Y121F T289A): 725 ± 65 µM; Kd of AfCYP51A relative to AfCYP51B (AfCYP51A-6×His; type II binding): 2.26 fold; greater susceptibility (MIC80) of strain I301T compared with strain ARE [2]: 3 fold; MIC80 ([2]; Saccharomyces cerevisiae, Table 3, strain ARE I301T, read-out: MIC80): 65 ± 14 µM; MIC80 ([4]; Table 3, strain ARE Y121F): 157 ± 33 µM; MIC80 ([5]; Saccharomyces cerevisiae, Table 3, read-out: MIC80): 3.8 ± 0.9 µM; MIC80 ([5]; Table 2, SD pH 6.8, 48 h, 30 °C): 10.0 ± 1.4 µM; MIC80 of strain ADLS relative to strain ADΔΔ ([7]; higher): 3 fold
